Experimental data taken from patent US20250032425A1, “FIRST IN CLASS USE OF ESTROGEN RECEPTOR BETA AGONISTS IN TREATING ANGELMAN SYNDROME AND RELEVANT AUTISM SPECTRUM DISORDERS” (BROWN UNIVERSITY, priority 2023, published 2025).
“Also recorded” adds a separate entry of the source.

Columns and labels:
[1] = test system: iOPCs treated with siUBE3A; assay: EdU nuclear incorporation in iOPCs treated with siUBE3A; type: cell-based, human; conditions: siUBE3A plus AC-186 at 10 μM for 24 hours
Experimental: The siRNAs targeting UBE3A (Thermo Fisher, #4390815 and #4390816), estrogen receptors (Thermo Scientific #145909 for ESRβ, #145539 for ESRα, and #4390824 for GPER), and negative control (Thermo Scientific, #AM4615) were obtained commercially. The 10-20 nM final concentration was used with Lipofectamine RNAiMAX transfection reagent (Thermo Scientific #13778075) and incubated for at least 48 hours before the treatments of therapeutic compounds or other reagents.
The EdU labeling kit from ThermoFisher Scientific (#C10637) was used to trace cell proliferation by incubating iOPCs with 2 μM EdU for three hours before fixation. Following EdU incorporation, cells were fixed in 4% paraformaldehyde, blocked with normal serum, and stained with primary antibodies, Rabbit anti-Ki67 and Mouse anti-UBE3A. These steps were conducted according to the manual of the labeling kit and also detailed immunofluorescence staining protocols described below, to ensure specific detection of the proliferation marker Ki67 and the ubiquitin-protein ligase UBE3A in the cells for subsequent imaging analysis.
For immunofluorescence with fixed cells in vitro, cultured cells were fixed in 4% PFA for 15 min at 37° C. followed by 0.25% TritonX-100 in PBS for 10 min at RT. Cells were blocked with 2% normal goat/donkey serum in PBS for 1 hour at RT. […]

[2] = test system: untreated iOPCs; assay: Baseline Ki67 expression in untreated iOPCs (normal UBE3A levels); type: cell-based, human; conditions: 10 μM, 24 hours
Text: FIG. 19A: Schematic illustrating the process of generating iPSC-derived oligodendrocyte lineage cells using a refined protocol from Vulakh and Yang, […] (Vulakh, G., and Yang, X. (2023). Characterizing the Neuron-Glial Interactions by the Co-cultures of Human iPSC-Derived Oligodendroglia and Neurons. Methods Mol. Biol. 2683. 10.1007/978-1-0716-3287-1_9). The human iPSCs employed in this study were the extensively characterized KOLF2.J1 control reference line, sourced from the INDI (Ramos, D. M., Skarnes, W. C., Singleton, A. B., Cookson, M. R., and Ward, M. E. (2021). Tackling neurodegenerative diseases with genomic engineering: A new stem cell initiative from the NIH. Neuron 109, 1080-1083. 10.1016/j.neuron.2021.03.022). Initially, iPSCs are converted into neural precursor cells (iNPCs, marked by Nestin) through SMAD inhibition in the first week. These iNPCs are then induced into oligodendrocyte precursor cells (iOPCs, marked by PDGFRa and A2B5) by the second week. […] FIG. 19H: Baseline effects of AC-186 on OPC proliferation analyzed by Ki67 expression in untreated iOPCs exposed to vehicle or drugs (AC-186 or DPN; 10 μM, 24 hours), with densitometric signals of immunoblotting normalized to GAPDH. […]

[3] = test system: rat OPCs with normal UBE3A levels; assay: Proliferation of rat OPCs with normal UBE3A levels; type: cell-based
[4] = rodents and dogs; cited from earlier work

Row | SMILES | EdU staining [1] | Ki67 expression, baseline [2] | effect on OPCs with normal UBE3A levels [3] | bioavailability [4]
1 | Oc1ccc(C2(c3ccccc3F)CCC(F)(F)CC2)cc1 [AC-186] | increased EdU staining | neither AC-186 nor DPN affected; also recorded: No significant changes | neither AC-186 nor DPN affected | satisfactory bioavailability; also recorded: effective bioavailability
2 | N#CC(Cc1ccc(O)cc1)c1ccc(O)cc1 (stereo not drawn) [DPN, diarylpropionitrile, reference compound] |  | neither AC-186 nor DPN affected; also recorded: No significant changes | neither AC-186 nor DPN affected | 
